Patent US9808003B2, “Herbicidally active 2-(substituted-phenyl)-cyclopentane-1,3-dione compounds and derivatives thereof” (Syngenta Limited, priority 2013, dated 2017)

Tests used:
Test in all cases: Test 1A glasshouse assay, post-emergence herbicidal activity
Assay type in all cases: in vivo
[1] = system: Alopecurus myosuroides (ALOMY); details: Alopecurus myosuroides, 312 h, application rate 250 g/ha, 13 days after application, visual (100%=total damage; 0%=no damage), read-out: Post-emergence Herbicidal Activity (% Phytotoxicity) ALOMY
Outline: (§1)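 Post-emergence: plants sprayed after 8 days' glasshouse growth (24/16° C, 14 h light, 65% humidity) with acetone/water (50:50) formulation containing 0.5% Tween 20. Visual % phytotoxicity (0 = none, 100 = total damage) scored 13 days after application.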

Avena fatua (AVEFA) = details: Avena fatua, 312 h, application rate 250 g/ha, 13 days after application, visual (100%=total damage; 0%=no damage), read-out: Post-emergence Herbicidal Activity (% Phytotoxicity) AVEFA
Outline: as §1

[2] = system: Echinochloa crus-galli (ECHCG); details: Echinochloa crus-galli, 312 h, application rate 250 g/ha, 13 days after application, visual (100%=total damage; 0%=no damage), read-out: Post-emergence Herbicidal Activity (% Phytotoxicity) ECHCG
Outline: as §1

Lolium perenne (LOLPE) = details: Lolium perenne, 312 h, application rate 250 g/ha, 13 days after application, visual (100%=total damage; 0%=no damage), read-out: Post-emergence Herbicidal Activity (% Phytotoxicity) LOLPE
Outline: as §1

SMILES | pest or weed control at 250 g/ha [1] [%] | pest or weed control at 250 g/ha (Avena fatua (AVEFA)) [%] | pest or weed control at 250 g/ha [2] [%] | pest or weed control at 250 g/ha (Lolium perenne (LOLPE)) [%]
Cc1cc(C)c(C2C(=O)CC(CCNC(=O)c3ccc(F)nc3)C2=O)c(C)c1 (stereo not drawn) [Compound A158] | 80 | 90 | 70 | 80
Cc1cc(C)c(C2C(=O)CC(CCNC(=O)c3cnc(Cl)cn3)C2=O)c(C)c1 (stereo not drawn) [Compound A195] | 30 | 30 | 80 | 60
Cc1cc(C)c(C2C(=O)CC(CCNC(=O)C3CCCC3)C2=O)c(C)c1 (stereo not drawn) [Compound A9] | 60 | 50 | 70 | 80
Cc1cc(C)c(C2C(=O)CC(CCNC(=O)c3cncc(Cl)n3)C2=O)c(C)c1 (stereo not drawn) [Compound A196] | 80 | 90 | 100 | 90
Cc1cc(C)c(C2=C(OC(=O)C(C)(C)C)CC(CCNC(=O)c3ccc(Br)cn3)C2=O)c(C)c1 (stereo not drawn) [Compound P13] | 100 | 100 | 100 | 100
Cc1cc(C)c(C2C(=O)CC(CCNC(=O)C3CCOCC3)C2=O)c(C)c1 (stereo not drawn) [Compound A35] | 80 | 40 | 40 | 60
Cc1cc(C)c(C2C(=O)CC(CCNC(=O)c3cc(C)on3)C2=O)c(C)c1 (stereo not drawn) [Compound A61] | 90 | 60 | 70 | 100
C#CCOc1cc(C)c(C2C(=O)CC(CCNC(=O)c3ccccn3)C2=O)c(C)c1 (stereo not drawn) [Compound A141A] | 80 | 80 | 80 | 70
Cc1cc(C)c(C2C(=O)CC(CCNC(=O)c3ncc(F)cc3Br)C2=O)c(C)c1 (stereo not drawn) [Compound A187] | 90 | 90 | 100 | 100
Cc1cc(C)c(C2C(=O)CC(CCNC(=O)c3cc(Cl)nc(Cl)c3)C2=O)c(C)c1 (stereo not drawn) [Compound A25] | 50 | 40 | 80 | 60
Cc1cc(C)c(C2C(=O)CC(CCNC(=O)c3cccc(Br)n3)C2=O)c(C)c1 (stereo not drawn) [Compound A48] | 100 | 90 | 100 | 100
Cc1cc(C)c(C2C(=O)CC(CCNC(=O)c3ncc(Br)cc3F)C2=O)c(C)c1 (stereo not drawn) [Compound A185] | 90 | 100 | 100 | 100
Cc1cc(C)c(C2C(=O)CC(CCNC(=O)c3ncc(C)nc3N)C2=O)c(C)c1 (stereo not drawn) [Compound A70] | 100 | 90 | 90 | 100
Cc1cc(C)c(C2=C(OC(=O)c3ccc(F)cc3)CC(CCNC(=O)c3ccc(Br)cn3)C2=O)c(C)c1 (stereo not drawn) [Compound P17] | 100 | 100 | 100 | 100
Cc1cc(C)c(C2C(=O)CC(CCNC(=O)c3ccc(C(F)(F)F)cc3)C2=O)c(C)c1 (stereo not drawn) [Compound A12] | 80 | 100 | 100 | 100
Cc1cc(C)c(C2C(=O)CC(CCNC(=O)c3cc(C#N)ccn3)C2=O)c(C)c1 (stereo not drawn) [Compound A148] | 70 | 90 | 90 | 90
CCCCS(=O)(=O)OC1=C(c2c(C)cc(C)cc2C)C(=O)C(CCNC(=O)c2ccc(Br)cn2)C1 (stereo not drawn) [Compound P18] | 100 | 90 | 100 | 100
Cc1cc(C)c(C2C(=O)CC(CCNC(=O)C3CCOC3)C2=O)c(C)c1 (stereo not drawn) [Compound A36] | 80 | 70 | 80 | 80
